# pEC50, pKd: −log10 of the molar value. Like-named read-outs stand apart in the source and are kept apart here.
# Assays:
# [1] = biological target: Sting protein (Homo sapiens, UniProt Q86WV6); assay: Binding affinity test of the compound and Sting protein by protein thermal transfer test (TSA); conditions: Kd fitted from change of ΔTm with compound concentration
# Method: The protein thermal transfer test (TSA) was used to determine the binding affinity of the compound to Sting protein. The 100 ug/ml Sting protein was mixed with different concentrations of the compound and 5× SYPRO Orange dye in a buffer of 20 mM Hepes, 150 mM NaCl, 1 mM MgCl2, 1 mM DTT, pH=7.5. The protein dissolution curve was measured on a qPCR instrument, the Tm value was fitted with Protein Thermal Shift Software 1.3 software, and the Tm difference of the protein was calculated when different concentrations of compound and no compound were added. The dissociation constant Kd was fitted and obtained according to the change of ΔTm with the concentration of the compound. […] The Kd value of each compound is classified according to the following instructions: […]
# [2] = biological target: T1, Sting protein (Homo sapiens, UniProt Q86WV6, G230A/H232R/R293Q/R71H); assay: Agonistic function test on Sting protein: IFN-β and CXCL10 (IP10) cytokines produced by THP1 cells (ELISA); assay type: cell-based; conditions: for pEC50: 18 hours, ELISA of supernatant; for activity of stimulating IFN-β and CXCL10 (IP10) cytokines produced by THP1 cells (in words): listed compounds compared with the reference compound
# T1 construct: endogenous in cells; host or cells: THP1 cells (Shanghai Cell Bank)
# Method: In this experiment, the function of sting agonist was evaluated by detecting the changes of IFN-β and CXCL10 (IP10) cytokines produced by human peripheral blood mononuclear cell line THP1 cells (Shanghai Cell Bank) stimulated by the compounds. On the first day of the experiment, the ELISA plate was coated according to the IFN-β (R&D, #DY814-05) and IP10 (BD, #550926) ELISA test kit instructions. The compound was dissolved into DMSO stock solution and diluted with culture medium to a 2× working concentration, added to a 96-well plate, 100 μL per well. The THP1 cells in the logarithmic growth phase were taken to count, and were diluted to a concentration of 2*10^6/mL, added to the above-mentioned 96-well plate containing the compounds, with […], per well, mixed well, and incubated in a 37° C., 5% CO2 incubator for 18 hours. On the second day, the above cell culture supernatant was taken, 100 μL per well, and tested according to IFN-β and IP10 ELISA test kits respectively. The OD450 value was read, and converted into IFN-β and IP10 concentration according to the standard curve, and fitted with GraphPad 5.0 to calculate the EC50 value of the dose-efficiency curve.
# T1 sequence (Q86WV6 whole entry R71H/G230A/H232R/R293Q): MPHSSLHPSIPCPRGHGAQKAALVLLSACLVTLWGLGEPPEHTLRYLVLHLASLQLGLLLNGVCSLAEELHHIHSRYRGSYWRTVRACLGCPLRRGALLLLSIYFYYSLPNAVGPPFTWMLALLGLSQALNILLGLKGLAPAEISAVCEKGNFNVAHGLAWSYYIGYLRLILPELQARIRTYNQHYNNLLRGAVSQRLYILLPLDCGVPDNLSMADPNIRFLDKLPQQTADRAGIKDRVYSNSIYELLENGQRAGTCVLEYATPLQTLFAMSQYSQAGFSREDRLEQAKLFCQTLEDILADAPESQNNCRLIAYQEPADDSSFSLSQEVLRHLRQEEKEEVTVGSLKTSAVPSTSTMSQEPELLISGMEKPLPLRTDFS
# Sting protein (Homo sapiens, UniProt Q86WV6), sequence (Q86WV6 whole entry H232R, species assumed): as the sequence (Q86WV6 whole entry R71H/G230A/H232R/R293Q) above, with H71R, A230G, Q293R counted along it
SMILES,pKd [1],pEC50 ([2]; read-out: IFN-β EC50),pEC50 ([2]; read-out: IP10 EC50),activity of stimulating IFN-β and CXCL10 (IP10) cytokines produced by THP1 cells (in words) [2]
CCc1nc(C)sc1C(=O)Nc1nc2cc(C(N)=O)cc(OC)c2n1C/C=C/Cn1c(NC(=O)c2cc(C)nn2CC)nc2cc(C(N)=O)cc(OCCCN3CCN(CC)CC3)c21 [Example 13],5.00 to 6.00,6.00 to 7.00,7.00 to 8.00,
CCc1nc(C)sc1C(=O)Nc1nc2cc(C(N)=O)cc(OCCCN3CCN(C(=O)OC)CC3)c2n1C/C=C/Cn1c(NC(=O)c2cc(C)nn2CC)nc2cc(C(N)=O)cc(SC)c21 [Example 40],5.00 to 6.00,7.00 to 8.00,,comparable or even higher activity
CCc1nc(C)sc1C(=O)Nc1nc2cc(C(N)=O)cc(OCCCN3CCOCC3)c2n1C/C=C/Cn1c(NC(=O)c2c(F)c(C)nn2CC)nc2cc(C(N)=O)cc(SC)c21 [Example 49],5.00 to 6.00,7.00 to 8.00,> 8.00,comparable or even higher activity
CCc1nc(C)sc1C(=O)Nc1nc2cc(C(N)=O)cc(OCCCN3CCN(C4CC4)CC3)c2n1C/C=C/Cn1c(NC(=O)c2cc(C)nn2CC)nc2cc(C(N)=O)cc(OC)c21 [Example 10],5.00 to 6.00,6.00 to 7.00,7.00 to 8.00,
CCc1nc(C)sc1C(=O)Nc1nc2cc(C(N)=O)cc(SC)c2n1C/C=C/Cn1c(NC(=O)c2cc(C)nn2CC)nc2cc(C(N)=O)cc(OCCCN3CCN(C4CC4)CC3)c21 [Example 23],5.00 to 6.00,7.00 to 8.00,7.00 to 8.00,comparable or even higher activity
CCc1nc(C)sc1C(=O)Nc1nc2cc(C(N)=O)cc(SC)c2n1C/C=C/Cn1c(NC(=O)c2cc(C)nn2CC)nc2cc(C(N)=O)cc(OCCCN3CCN(CC)CC3)c21 [Example 21],5.00 to 6.00,6.00 to 7.00,7.00 to 8.00,
"CCn1nc(C)cc1C(=O)Nc1nc2cc(C(N)=O)cc(SC)c2n1C/C=C/Cn1c(NC(=O)c2c(F)c(C)nn2CC)nc2cc(C(N)=O)cc(OCCCN3CCOCC3)c21 [Example 51, (E)-1-(4-(5-(5-carbamoyl-2-)(1-styrene-3-methyl-1H-pyrazole-5-formylamino)-7-(methylthio)-1H-benzo[d]imidazol-1-yl)but-2-en-1-yl)-2-(1-styrene-4-fluoro-3-methyl-1H-pyrazole-5-anthralamido)-7-(3-morpholinopropoxy)-1H-benzo[d]imidazole-5-formylamide]",5.00 to 6.00,7.00 to 8.00,> 8.00,comparable or even higher activity
CCC(=O)N1CCN(CCCOc2cc(C(N)=O)cc3nc(NC(=O)c4cc(C)nn4CC)n(C/C=C/Cn4c(NC(=O)c5sc(C)nc5CC)nc5cc(C(N)=O)cc(OC)c54)c23)CC1 [Example 30],5.00 to 6.00,6.00 to 7.00,7.00 to 8.00,
CCc1nc(C)sc1C(=O)Nc1nc2cc(C(N)=O)cc(OCCCN3CCOCC3)c2n1C/C=C/Cn1c(NC(=O)c2c(F)c(C)nn2CC)nc2cc(C(N)=O)cc(OC)c21 [Example 47],5.00 to 6.00,< 6.00,7.00 to 8.00,
CCc1nc(C)sc1C(=O)Nc1nc2cc(C(N)=O)cc(OCCCN3CCN(C(C)C)CC3)c2n1C/C=C/Cn1c(NC(=O)c2cc(C)nn2CC)nc2cc(C(N)=O)cc(OC)c21 [Example 9],5.00 to 6.00,6.00 to 7.00,7.00 to 8.00,
CCc1nc(C)sc1C(=O)Nc1nc2cc(C(N)=O)cc(OCCCN3CCN(C(C)C)CC3)c2n1C/C=C/Cn1c(NC(=O)c2cc(C)nn2CC)nc2cc(C(N)=O)cc(SC)c21 [Example 18],5.00 to 6.00,6.00 to 7.00,7.00 to 8.00,
CCc1nc(C)sc1C(=O)Nc1nc2cc(C(N)=O)cc(SC)c2n1C/C=C/Cn1c(NC(=O)c2cc(C)nn2CC)nc2cc(C(N)=O)cc(OCCCN3CCN(C(C)=O)CC3)c21 [Example 41],5.00 to 6.00,6.00 to 7.00,7.00 to 8.00,

# From patent US20220119379A1, “IMMUNOMODULATOR” (HITGEN INC., priority 2019, published 2022)
